The target of assay [1] is T1, NR1/2B receptors (Rattus norvegicus, UniProt P35439+Q00960).
T1 construct: expressed in transfected cells; host or cells: HEK293 (ATCC CRL1573), transient transfection
The assay is described as follows: whole-cell patch-clamp of transfected HEK293 cells, NR1/2B, 100 μM glutamate plus 10 μM glycine. It counts as cell-based. How it is done:
(§1) Human embryonic kidney 293 (HEK293) fibroblasts (ATCC CRL1573) were cultured in minimal essential medium supplemented with 10% fetal bovine serum and 2 mM glutamine (Life Technologies, Rockville, Md.). Cells were plated on poly-D-lysine-coated 35 mm nunc dishes, transfected by the LipofectaminePLUS method (Life Technologies), and examined functionally between 18-48 h post transfection. The following receptor subunit cDNAs were used: nAChR-α3 (nicotinic acetylcholine receptor-α3; accession no. L31621), nAChR-α4 (accession no. L31620), nAChR-β2 (accession no. L31622), nAChR-β4 (accession no. U42976), 5-HT3R-A (5-HT3A receptor; accession no. M74425), NR1 (N-methyl-D-aspartate receptor 1; accession no. X63255), NR2A (accession no. X91561), and NR2B (accession no. M91562). The nAchR and NR clones were rat; the 5-HT3R-A clone was mouse. Co-transfection of enhanced green fluorescent protein (“EGFP”) (10% of total cDNA) provided a marker to identify transfected cells. Transfected cells were selected for EGFP expression and examined by voltage-clamp recording in the whole-cell configuration using an Axopatch 200B patch-clamp amplifier (Axon Instruments, Foster City, Calif.). Thin-walled borosilicate glass microelectrodes (TW150F, World Precision Instruments, Sarasota, Fla.) had resistances of 3-5 MΩ when filled with an internal solution containing (in mM): 135 CsCl, 10 CsF, 10 HEPES (N-[2-hydroxyethyl]piperazine-N′-[2-ethanesulfonic acid]), 5 EGTA (ethylene glycol-bis[β-aminoethyl ether]-N,N,N′,N′-tetraacetic acid), 1 MgCl2, 0.5 CaCl2, pH 7.2. Whole-cell capacitance and series resistance were recorded and adequately compensated using the available circuitry of the amplifier. Current responses were filtered at 1 kHz with an 8-pole Bessel filter (Cygnus Technologies, Delaware Water Gap, Pa.), digitized at 3 kHz, and stored on a Macintosh PowerPC-G3 computer using an ITC-16 interface (Instrutech, Great Neck, N.Y.) under control of the data acquisition and analysis program Synapse (Synergy Research, Gaithersburg, Md.). Cells were continuously superfused with extracellular solution containing (in mM): 150 NaCl, 3 KCl, 5 HEPES, 1 MgCl2, 1.8 CaCl2, 10 glucose, and 0.1 mg/ml phenol red, pH 7.3 (MgCl2 was omitted from all solutions used for the study of NMDA receptors). […] Control, agonist, and drug solutions were applied to individual cells by rapid perfusion. Solutions were driven by a syringe pump through a flowpipe having 4 inputs that converge at a single common output of approximately 100 μm diameter. Rapid switching between inputs was achieved using a set of upstream solenoid valves (Lee Co., Westbrook, Conn.) under computer control; the solution exchange rate was ˜5 ms as measured from liquid junction currents.
(§2) To study these, transfected HEK293 cells expressing NR1/2A or NR1/2B receptors were voltage-clamped to −70 mV and stimulated with 100 μM glutamate plus 10 μM glycine at 30 s intervals. […] In FIGS. 3A and 3B, open bars depict the timing of agonist application, filled bars depict the timing of co-application of 20 μM IBO or 20 μM 18MC, and inhibition was measured relative to control at the end of the drug application (indicated by arrows).
For orientation: Patch clamp records ionic current or voltage across a cell membrane.

Assay [2] concerns the target T2, α3β4 nACh receptors (Rattus norvegicus, UniProt P09483+P12390).
T2 construct: expressed in transfected cells; host or cells: HEK293 (ATCC CRL1573), transient transfection
Nature of the assay: whole-cell patch-clamp of transfected HEK293 cells, neuronal nACh receptors, 300 μM ACh. It counts as cell-based. As for the experimental part:
as §1
Transfected HEK293 cells expressing various receptor subunit cDNAs were examined by whole-cell patch-clamp recording with fast perfusion of agonist and drug solutions. […] Transfected HEK293 cells expressing α3β4 nACh receptors were voltage-clamped to −70 mV and stimulated with 1 mM ACh at 30 s intervals. […] In FIG. 1A, open bars depict the timing of ACh application; filled bars depict the timing of co-application of 20 μM IBO or 20 μM 18MC; and inhibition was measured relative to control at the end of the drug application (indicated by arrows). […] The data presented in FIG. 1B are mean±SEM for 3-14 cells per point, and curve fits are given for the logistic equation: I=Imax/(1+([drug]/IC50)). […] In this case, transfected HEK293 cells expressing α3β4 nACh receptors were voltage-clamped to −70 mV and stimulated with 300 μM ACh at 30 s intervals.

In assay [3] the target is T3, α3β4 nACh receptors (Rattus norvegicus, UniProt P04757+P12392).
T3 construct: expressed in transfected cells; host or cells: HEK293 (ATCC CRL1573), transient transfection
Nature of the assay: whole-cell patch-clamp of transfected HEK293 cells, ganglionic α3β4 nACh receptors, 1 mM ACh. The format is cell-based. How it is done: Human embryonic kidney 293 (HEK293) fibroblasts (ATCC CRL1573) were cultured in minimal essential medium supplemented with 10% fetal bovine serum and 2 mM glutamine (Life Technologies, Rockville, Md.). Cells were plated on poly-D-lysine-coated 35 mm nunc dishes, transfected by the LipofectaminePLUS method (Life Technologies), and examined functionally between 18-48 h post transfection. The following receptor subunit cDNAs were used: nAChR-α3 (nicotinic acetylcholine receptor-α3; accession no. L31621), nAChR-α4 (accession no. L31620), nAChR-β2 (accession no. L31622), nAChR-β4 (accession no. U42976), 5-HT3R-A (5-HT3A receptor; accession no. M74425), NR1 (N-methyl-D-aspartate receptor 1; accession no. X63255), NR2A (accession no. X91561), and NR2B (accession no. M91562). The nAchR and NR clones were rat; the 5-HT3R-A clone was mouse. Co-transfection of enhanced green fluorescent protein (“EGFP”) (10% of total cDNA) provided a marker to identify transfected cells. Transfected cells were selected for EGFP expression and examined by voltage-clamp recording in the whole-cell configuration using an Axopatch 200B patch-clamp amplifier (Axon Instruments, Foster City, Calif.). Thin-walled borosilicate glass microelectrodes (TW150F, World Precision Instruments, Sarasota, Fla.) had resistances of 3-5 MΩ when filled with an internal solution containing (in mM): 135 CsCl, 10 CsF, 10 HEPES (N-[2-hydroxyethyl]piperazine-N′-[2-ethanesulfonic acid]), 5 EGTA (ethylene glycol-bis[β-aminoethyl ether]-N,N,N′,N′-tetraacetic acid), 1 MgCl2, 0.5 CaCl2, pH 7.2. Whole-cell capacitance and series resistance were recorded and adequately compensated using the available circuitry of the amplifier. Current responses were filtered at 1 kHz with an 8-pole Bessel filter (Cygnus Technologies, Delaware Water Gap, Pa.), digitized at 3 kHz, and stored on a Macintosh PowerPC-G3 computer using an ITC-16 interface (Instrutech, Great Neck, N.Y.) under control of the data acquisition and analysis program Synapse (Synergy Research, Gaithersburg, Md.). […] Rapid switching between inputs was achieved using a set of upstream solenoid valves (Lee Co., Westbrook, Conn.) under computer control; the solution exchange rate was ˜5 ms as measured from liquid junction currents.
Transfected HEK293 cells expressing various receptor subunit cDNAs were examined by whole-cell patch-clamp recording with fast perfusion of agonist and drug solutions. […] In FIG. 1A, open bars depict the timing of ACh application; filled bars depict the timing of co-application of 20 μM IBO or 20 μM 18MC; and inhibition was measured relative to control at the end of the drug application (indicated by arrows). […]

The target of assay [4] is T4, NR1/2A receptors (Rattus norvegicus, UniProt P35439+Q00959).
T4 construct: expressed in transfected cells; host or cells: HEK293 (ATCC CRL1573), transient transfection
The assay is described as follows: whole-cell patch-clamp of transfected HEK293 cells, NR1/2A, 100 μM glutamate plus 10 μM glycine. The format is cell-based. As for the experimental part:
as §1, §2

Assay [5] addresses T5, 5-HT3A receptors (Mus musculus, UniProt P23979).
T5 construct: expressed in transfected cells; host or cells: HEK293 (ATCC CRL1573), transient transfection
T5 sequence (P23979 24-489): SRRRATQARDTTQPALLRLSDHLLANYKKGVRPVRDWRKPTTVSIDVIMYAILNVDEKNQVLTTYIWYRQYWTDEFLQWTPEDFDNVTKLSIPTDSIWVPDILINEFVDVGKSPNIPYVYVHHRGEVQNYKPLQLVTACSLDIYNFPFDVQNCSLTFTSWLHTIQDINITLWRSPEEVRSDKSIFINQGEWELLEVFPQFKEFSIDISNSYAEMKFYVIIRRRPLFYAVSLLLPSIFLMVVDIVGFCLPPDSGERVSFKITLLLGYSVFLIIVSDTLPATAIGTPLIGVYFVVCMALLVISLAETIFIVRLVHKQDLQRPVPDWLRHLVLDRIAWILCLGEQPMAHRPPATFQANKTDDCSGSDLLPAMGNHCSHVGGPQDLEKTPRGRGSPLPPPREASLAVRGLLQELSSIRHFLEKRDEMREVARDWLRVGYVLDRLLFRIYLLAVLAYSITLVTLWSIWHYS
Nature of the assay: whole-cell patch-clamp of transfected HEK293 cells, 5-HT3A, 100 μM serotonin. It counts as cell-based. As for the experimental part: as §1
Transfected HEK293 cells expressing 5-HT3A receptors were voltage-clamped to −70 mV and stimulated with 100 μM serotonin at 30 s intervals. […] This is shown in FIG. 4, where open bars depict the timing of agonist application, filled bars depict the timing of co-application of 20 μM IBO or 20 μM 18MC, and inhibition was measured relative to control at the end of the drug application (indicated by arrows).

For assay [6], the target named is NMDA-type glutamate receptors. The conditions noted are these: literature (Popik, Chen); read-out: IC50 obtained in hippocampal neurons; cited from earlier work.

T4 sequence (Q00959 20-1464 limits assumed, other chains not shown): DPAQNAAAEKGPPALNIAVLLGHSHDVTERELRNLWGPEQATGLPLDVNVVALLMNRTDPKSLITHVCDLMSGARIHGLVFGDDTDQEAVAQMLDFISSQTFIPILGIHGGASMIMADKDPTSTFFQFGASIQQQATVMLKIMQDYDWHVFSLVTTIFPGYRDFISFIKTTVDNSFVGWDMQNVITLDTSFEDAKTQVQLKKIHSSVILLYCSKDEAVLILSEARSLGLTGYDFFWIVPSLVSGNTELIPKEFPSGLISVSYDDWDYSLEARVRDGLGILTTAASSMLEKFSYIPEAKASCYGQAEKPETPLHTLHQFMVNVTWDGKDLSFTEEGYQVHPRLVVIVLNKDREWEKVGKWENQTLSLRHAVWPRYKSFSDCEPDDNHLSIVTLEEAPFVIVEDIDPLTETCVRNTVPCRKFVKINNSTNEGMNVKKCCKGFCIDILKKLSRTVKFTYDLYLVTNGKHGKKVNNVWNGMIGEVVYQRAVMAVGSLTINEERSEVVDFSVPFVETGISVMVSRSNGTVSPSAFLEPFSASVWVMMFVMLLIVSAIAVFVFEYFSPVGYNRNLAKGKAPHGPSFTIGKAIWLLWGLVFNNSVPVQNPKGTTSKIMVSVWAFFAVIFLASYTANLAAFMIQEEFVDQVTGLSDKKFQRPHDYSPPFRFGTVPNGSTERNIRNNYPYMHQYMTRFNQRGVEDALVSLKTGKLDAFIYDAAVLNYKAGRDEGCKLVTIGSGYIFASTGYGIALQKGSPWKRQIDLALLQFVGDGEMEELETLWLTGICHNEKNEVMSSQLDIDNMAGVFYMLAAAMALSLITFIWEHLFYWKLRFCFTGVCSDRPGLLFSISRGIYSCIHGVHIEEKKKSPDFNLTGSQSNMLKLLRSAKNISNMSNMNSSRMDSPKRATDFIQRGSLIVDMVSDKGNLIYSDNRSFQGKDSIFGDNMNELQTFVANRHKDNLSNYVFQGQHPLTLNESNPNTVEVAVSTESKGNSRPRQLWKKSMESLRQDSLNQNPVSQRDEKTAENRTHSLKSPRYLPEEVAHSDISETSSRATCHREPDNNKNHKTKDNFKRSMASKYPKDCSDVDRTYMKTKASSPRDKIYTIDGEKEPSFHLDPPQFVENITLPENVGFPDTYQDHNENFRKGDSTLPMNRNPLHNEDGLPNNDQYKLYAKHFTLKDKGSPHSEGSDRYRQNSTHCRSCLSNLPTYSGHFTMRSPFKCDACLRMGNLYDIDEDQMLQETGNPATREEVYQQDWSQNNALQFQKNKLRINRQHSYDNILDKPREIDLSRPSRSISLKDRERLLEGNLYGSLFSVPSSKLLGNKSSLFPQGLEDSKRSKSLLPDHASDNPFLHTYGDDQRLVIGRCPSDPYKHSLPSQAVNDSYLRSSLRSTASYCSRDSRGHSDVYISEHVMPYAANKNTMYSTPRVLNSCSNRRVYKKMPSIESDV
T2 sequence (P09483 31-630): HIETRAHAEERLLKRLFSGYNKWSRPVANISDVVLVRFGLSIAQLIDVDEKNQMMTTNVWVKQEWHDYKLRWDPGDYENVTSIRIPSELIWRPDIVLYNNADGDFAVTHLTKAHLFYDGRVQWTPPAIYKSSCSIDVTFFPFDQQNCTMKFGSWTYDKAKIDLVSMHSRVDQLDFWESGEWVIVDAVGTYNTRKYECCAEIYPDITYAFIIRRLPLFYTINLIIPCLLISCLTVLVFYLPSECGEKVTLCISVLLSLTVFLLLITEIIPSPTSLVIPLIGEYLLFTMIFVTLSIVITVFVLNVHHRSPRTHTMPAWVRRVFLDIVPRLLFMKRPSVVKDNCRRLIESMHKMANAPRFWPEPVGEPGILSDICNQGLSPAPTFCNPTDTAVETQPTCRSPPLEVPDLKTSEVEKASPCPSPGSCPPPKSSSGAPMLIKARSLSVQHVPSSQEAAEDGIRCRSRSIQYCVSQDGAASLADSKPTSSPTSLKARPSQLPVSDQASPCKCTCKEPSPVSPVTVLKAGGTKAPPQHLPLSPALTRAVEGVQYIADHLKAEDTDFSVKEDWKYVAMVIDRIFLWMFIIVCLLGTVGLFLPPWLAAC
T2 sequence (P12390 25-500): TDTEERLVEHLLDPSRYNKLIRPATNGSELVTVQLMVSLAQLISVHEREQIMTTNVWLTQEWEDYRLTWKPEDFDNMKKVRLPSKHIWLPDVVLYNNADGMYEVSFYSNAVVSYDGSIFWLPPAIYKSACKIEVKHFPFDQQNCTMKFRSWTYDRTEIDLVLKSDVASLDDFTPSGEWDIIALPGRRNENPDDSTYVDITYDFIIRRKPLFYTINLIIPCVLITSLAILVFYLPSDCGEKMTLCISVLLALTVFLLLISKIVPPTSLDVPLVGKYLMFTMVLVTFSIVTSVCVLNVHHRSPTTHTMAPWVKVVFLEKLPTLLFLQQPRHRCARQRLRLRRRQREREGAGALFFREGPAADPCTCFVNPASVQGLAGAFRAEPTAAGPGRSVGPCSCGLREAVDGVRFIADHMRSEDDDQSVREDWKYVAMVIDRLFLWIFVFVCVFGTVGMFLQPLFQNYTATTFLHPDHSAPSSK
T1 sequence (Q00960 27-1482, other chains not shown): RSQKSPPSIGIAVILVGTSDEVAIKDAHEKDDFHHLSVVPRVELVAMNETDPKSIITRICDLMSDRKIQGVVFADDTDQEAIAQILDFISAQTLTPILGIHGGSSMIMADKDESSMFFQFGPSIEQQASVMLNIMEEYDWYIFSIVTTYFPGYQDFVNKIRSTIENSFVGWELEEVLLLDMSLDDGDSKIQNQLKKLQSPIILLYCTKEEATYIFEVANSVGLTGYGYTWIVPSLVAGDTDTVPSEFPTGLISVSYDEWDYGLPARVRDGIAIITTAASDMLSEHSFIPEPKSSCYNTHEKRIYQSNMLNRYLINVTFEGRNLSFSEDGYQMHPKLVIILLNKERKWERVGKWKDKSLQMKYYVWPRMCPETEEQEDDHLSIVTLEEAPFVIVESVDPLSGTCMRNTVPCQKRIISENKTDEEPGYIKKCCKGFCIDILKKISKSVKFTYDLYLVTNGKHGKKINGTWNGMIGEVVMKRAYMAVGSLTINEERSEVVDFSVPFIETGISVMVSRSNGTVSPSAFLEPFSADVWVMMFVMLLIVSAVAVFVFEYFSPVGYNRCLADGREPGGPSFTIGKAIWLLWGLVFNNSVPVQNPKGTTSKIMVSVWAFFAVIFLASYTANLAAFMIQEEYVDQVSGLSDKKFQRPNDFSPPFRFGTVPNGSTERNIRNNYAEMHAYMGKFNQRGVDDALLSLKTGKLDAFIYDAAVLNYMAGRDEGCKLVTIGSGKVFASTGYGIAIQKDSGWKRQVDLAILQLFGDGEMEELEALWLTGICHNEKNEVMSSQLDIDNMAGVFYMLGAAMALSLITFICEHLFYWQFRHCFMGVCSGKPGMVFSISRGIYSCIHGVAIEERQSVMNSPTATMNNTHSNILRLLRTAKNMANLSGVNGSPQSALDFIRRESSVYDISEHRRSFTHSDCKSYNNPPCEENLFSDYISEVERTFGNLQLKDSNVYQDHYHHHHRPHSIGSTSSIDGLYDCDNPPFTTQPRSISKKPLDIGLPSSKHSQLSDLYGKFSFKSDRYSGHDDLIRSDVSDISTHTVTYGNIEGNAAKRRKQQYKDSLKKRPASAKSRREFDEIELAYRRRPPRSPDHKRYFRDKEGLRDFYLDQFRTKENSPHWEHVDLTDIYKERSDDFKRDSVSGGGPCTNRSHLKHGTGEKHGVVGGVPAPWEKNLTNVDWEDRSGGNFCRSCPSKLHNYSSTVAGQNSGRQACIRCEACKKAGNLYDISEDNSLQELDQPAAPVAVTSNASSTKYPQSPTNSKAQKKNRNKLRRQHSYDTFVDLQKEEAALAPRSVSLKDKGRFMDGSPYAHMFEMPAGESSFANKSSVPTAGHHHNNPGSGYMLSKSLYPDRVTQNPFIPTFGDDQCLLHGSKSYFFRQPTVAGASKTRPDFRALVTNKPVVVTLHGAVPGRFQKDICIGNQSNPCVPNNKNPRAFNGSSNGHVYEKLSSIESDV
T3 sequence (P04757 26-499): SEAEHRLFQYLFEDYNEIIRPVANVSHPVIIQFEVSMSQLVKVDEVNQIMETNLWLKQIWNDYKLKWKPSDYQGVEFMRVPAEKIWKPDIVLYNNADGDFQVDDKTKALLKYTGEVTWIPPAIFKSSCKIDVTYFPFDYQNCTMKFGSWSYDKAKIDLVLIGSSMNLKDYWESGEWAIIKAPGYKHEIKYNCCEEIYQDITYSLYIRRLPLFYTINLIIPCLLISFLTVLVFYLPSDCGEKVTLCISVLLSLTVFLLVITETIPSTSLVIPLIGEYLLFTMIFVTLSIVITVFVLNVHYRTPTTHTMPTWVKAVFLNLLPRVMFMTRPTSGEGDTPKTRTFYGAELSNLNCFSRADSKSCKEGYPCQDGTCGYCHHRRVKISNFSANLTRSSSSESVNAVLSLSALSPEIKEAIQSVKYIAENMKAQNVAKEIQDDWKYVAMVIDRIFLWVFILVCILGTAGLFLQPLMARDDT
T3 sequence (P12392 21-495): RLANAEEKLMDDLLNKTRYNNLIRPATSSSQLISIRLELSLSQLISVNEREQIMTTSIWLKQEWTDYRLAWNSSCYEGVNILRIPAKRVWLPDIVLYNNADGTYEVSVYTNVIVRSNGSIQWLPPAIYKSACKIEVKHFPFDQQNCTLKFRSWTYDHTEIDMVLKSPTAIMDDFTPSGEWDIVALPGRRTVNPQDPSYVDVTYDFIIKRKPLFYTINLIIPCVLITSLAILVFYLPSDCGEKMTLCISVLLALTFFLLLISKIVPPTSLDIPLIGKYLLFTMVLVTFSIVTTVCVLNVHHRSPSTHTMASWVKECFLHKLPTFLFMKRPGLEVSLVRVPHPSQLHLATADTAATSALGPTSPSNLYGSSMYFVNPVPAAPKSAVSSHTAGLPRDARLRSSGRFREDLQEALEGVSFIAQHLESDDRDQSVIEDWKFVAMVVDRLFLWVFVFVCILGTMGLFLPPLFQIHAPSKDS

In general, IC50 refers to the point on the concentration scale where inhibition reaches its midpoint. Consider ibogaine, for which the “inhibition of agonist-evoked response” value is 82±3% in assay [1] (10 μM drug, co-application) and 51±9% in assay [4] (10 μM drug, co-application). Besides, the “response to drug applied alone (agonist activity)” value is recorded as “did not produce any response” in assay [1] (20 μM drug alone); “did not produce any response” in assay [2] (20 μM drug alone, -70 mV); “did not produce any response” in assay [3] (20 μM drug alone, -70 mV); “did not produce any response” in assay [4] (20 μM drug alone); “did not produce any response” in assay [5] (20 μM drug alone). Moreover, the “reduction of agonist-evoked response” value in assay [1] (20 μM drug, co-application) was determined as 95±2%; in assay [4] (20 μM drug, co-application) it was 98±3%. In addition, the “inhibition of ACh-evoked response” value in assay [2] (5 μM drug with 300 μM ACh) is 61±4%; in assay [2] (20 μM drug with 300 μM ACh, FIG. 2), 93±3%. Besides, the “inhibition of ACh-evoked responses on co-application” value in assay [3] (20 μM drug with 1 mM ACh, N=15, FIG. 1A) is on record as “nearly abolished”. In assay [5] (20 μM drug with 100 μM serotonin, FIG. 4), the “inhibition of serotonin-evoked responses” value is on record as 53±3%. For the same substance, the IC50 in assay [6] was 3 to 5 µM.
